According to the supplement of paper PMC6045584:

Experiments:
Assay in all cases: area under dose-response curve of surviving fraction (unscaled, Aref=0) (surviving fraction x log10(nM)); higher = more resistant
Details in all cases: exposure time: 5 days; dose range 0.5-1000 nM
AFIMOXIFENE = compound: CC/C(=C(\c1ccc(O)cc1)c1ccc(OCCN(C)C)cc1)c1ccccc1 [AFIMOXIFENE]
Procedure, shortened: (§1)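 Each tumour cell line was screened three times in 384-well plates, receiving eight inhibitor concentrations from 0.5 to 1000 nM for five days. CellTiter-Glo luminescence gave viability, normalised to DMSO-only wells. Using the drc R package, surviving fractions were fitted with 3-parameter logistic dose-response curves, and the unscaled activity area over log10 dose (Aref = 0) was taken as the area under the curve.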

NILOTINIB = compound: Cc1cn(-c2cc(NC(=O)c3ccc(C)c(Nc4nccc(-c5cccnc5)n4)c3)cc(C(F)(F)F)c2)cn1 [NILOTINIB]
Procedure, shortened: as §1

[1] = compound: COc1ccc(-c2cc3c(C)nc(N)nc3n([C@H]3CC[C@H](OCCO)CC3)c2=O)cn1
Procedure, shortened: as §1

BEZ-235 = compound: Cn1c(=O)n(-c2ccc(C(C)(C)C#N)cc2)c2c3cc(-c4cnc5ccccc5c4)ccc3ncc21 [BEZ-235]
Procedure, shortened: as §1

[2] = compound: CCc1cc(Nc2nccc(-c3c(-c4ccc(OC)c(C(=O)Nc5c(F)cccc5F)c4)nc4ccccn34)n2)c(OC)cc1N1CCC(N2CCN(S(C)(=O)=O)CC2)CC1
Procedure, shortened: as §1

[3] = compound: C[C@H](CN(C)C)Oc1nc(Nc2cc3cccc(Cl)c3cn2)cnc1C#N
Procedure, shortened: as §1

LENVATINIB = compound: COc1cc2nccc(Oc3ccc(NC(=O)NC4CC4)c(Cl)c3)c2cc1C(N)=O [LENVATINIB]
Procedure, shortened: as §1

IMATINIB = compound: Cc1ccc(NC(=O)c2ccc(CN3CCN(C)CC3)cc2)cc1Nc1nccc(-c2cccnc2)n1 [IMATINIB]
Procedure, shortened: as §1

BLEOMYCIN = compound: Cc1c(N)nc([C@H](CC(N)=O)NC[C@H](N)C(N)=O)nc1C(=O)N[C@H](C(=O)N[C@H](C)[C@@H](O)[C@H](C)C(=O)N[C@H](C(=O)NCCc1nc(-c2nc(C(=O)NCCC[S+](C)C)cs2)cs1)[C@@H](C)O)[C@@H](OC1OC(CO)C(O)C(O)C1OC1OC(CO)C(O)C(OC(N)=O)C1O)c1cnc[nH]1 [BLEOMYCIN]
Procedure, shortened: as §1

MK-1775 = compound: C=CCn1c(=O)c2cnc(Nc3ccc(N4CCN(C)CC4)cc3)nc2n1-c1cccc(C(C)(C)O)n1 [MK-1775]
Procedure, shortened: as §1

| Test System | area under dose-response curve (AFIMOXIFENE) | area under dose-response curve (NILOTINIB) | area under dose-response curve [1] | area under dose-response curve (BEZ-235) | area under dose-response curve [2] | area under dose-response curve [3] | area under dose-response curve (LENVATINIB) | area under dose-response curve (IMATINIB) | area under dose-response curve (BLEOMYCIN) | area under dose-response curve (MK-1775) |
| --- | --- | --- | --- | --- | --- | --- | --- | --- | --- | --- |
| HOS BONE | 3.46 | 3.43 | 2.46 | 2.52 | 3.27 | 3.05 | 3.38 | 3.43 | 3.03 | 2.77 |
| HSSYII SYNOVIAL | 3.31 | 3.09 | 1.93 | 2.12 | 3.08 | 2.56 | 2.64 | 3.24 | 2.09 | 2.05 |
| HT1080 SOFT TISSUE | 3.48 | 3.28 | 2.54 | 2.35 | 3.37 | 3.08 | 3.31 | 3.5 | 2.57 | 2.2 |
| HUO3N1 BONE | 3.5 | 3.34 | 2.24 | 2.58 | 3.26 | 3.12 | 3.05 | 3.24 | 2.94 | 2.77 |
| JIMT1 BREAST | 3.34 | 3.15 | 2.47 | 2.38 | 3.34 | 2.3 | 3.41 | 3.41 | 2.8 | 2.04 |
| JURKAT HAEMATOPOIETIC AND LYMPHOID TISSUE | 3.27 | 3.46 | 2.42 | 2.43 | 3.28 | 2.99 | 3.38 | 3.38 | 2.64 | 2.46 |
| LM7 BONE | 3.53 | 3.1 | 2.32 | 2.77 | 3.23 | 3.17 | 3.27 | 3.59 | 2.46 | 2.34 |
| MCF7 BREAST | 2.96 | 3.12 | 1.93 | 2.35 | 2.85 | 2.75 | 3.12 | 3.28 | 2.65 | 2.74 |
| MDAMB231 BREAST | 3.31 | 2.86 | 2.27 | 2.28 | 3.23 | 3.05 | 3.24 | 3.24 | 2.82 | 2.54 |
| MDAMB361 BREAST | 2.82 | 2.19 | 2.3 | 2.44 | 3.05 | 2.21 | 2.97 | 2.84 | 2.67 | 2.29 |
